Results from patent US12129312B2, “Peptide compound, application thereof and composition containing same” (priority 2017, dated 2024).
Square brackets hold non-standard residues; d marks the D form. Peptide text beside a SMILES is read from it. * marks the point of attachment. Hydrocinnamoyl = O=C(CCc1ccccc1)*; Tic = O=C(O)[C@@H]1Cc2ccccc2CN1; NMeL = CN[C@@H](CC(C)C)C(=O)O

Assay: Plasma stability, human plasma
Format: in vitro ADME
Conditions: 37° C., time points 0 minute, 1, 2 and 4 hours, LC-MS/MS, read-out: Human plasma (T1/2 (h)) (converted)
Method: 1. Preparation of 50 mM Phosphate Buffer (50 mM Sodium Phosphate and 70 mM NaCl):
5.750 g of Na2HPO4, 1.141 g of NaH2PO4 and 4.095 g of NaCl (Shanghai Titan) were weighed and dissolved in 1000 mL of ultrapure water and the pH was adjusted to 7.4. The prepared phosphate buffer was stored in the refrigerator at 4° C., valid for one week.
2. Preparation of Compound Stock Solution:
1) 5 mg/mL test compound: 5 mg of compound was weighed and dissolved in 1 mL of DMSO.
2) 20 mM control: 2.728 mg of nococaine was dissolved in 0.5 mL of DMSO. 3.878 mg of fenfluramide was dissolved in 0.5 mL of DMSO (Amresco).
3. Preparation of Experimental Plasma:
The frozen plasma (human: Shanghai ChemPartner, Rat, Mouse: Shanghai Xipuer-Beikai, Dog, Monkey: Suzhou Xishan Zhongke) was taken out from the −80° C. refrigerator, immediately placed in a 37° C. water bath, and thawn with gentle shaking. The thawed plasma was poured into a centrifuge tube, and centrifuged at 3000 rpm for 8 minutes. The supernatant was collected for the experiment. The pH of the plasma was measured with a pH meter (METTLER TOLEDO), and only the plasma with a pH between 7.4 and 8 was used for the experiment. The plasma was placed on an ice bath for later use.
4. Preparation of the Dosing Solution:
1) 125 μg/mL test compound solution: 5 μL of 5 mg/mL test compound (see step 2) was added to 195 μL DMSO; 500 μM control solution: 20 mM control stock solution (see step 2) was added to 195 μL DMSO.
2) 0.5% BSA phosphate buffer solution: 0.05 g of BSA was added to 10 mL of phosphate buffer (see step 1).
3) 5 μg/mL test compound dosing solution: 40 μL of 125 μg/mL test compound solution was added to 960 μL of 0.5% BSA phosphate buffer solution, shaken and mixed evenly, and the dosing solution was placed in a 37° C. water bath and preheated for 5 minutes.
20 μM control dosing solution: 40 μL of 500 μM control solution was added to 960 μL of 0.5% BSA phosphate buffer solution, shaken and mixed evenly, and the dosing solution was placed in a 37° C. water bath and preheated for 5 minutes.
5. 10 μL of 5 μg/mL test compound and 20 μM control solution were added to the wells of the 96-well plate set at different time points (0 minute, 1 hour, 2 hours and 4 hours). The number of duplicate samples was 3.
6. 500 μL of ACN (IS) containing 5% FA was added to the wells set at 0 minute. 90 μL of plasma was then added thereto, mixed evenly, sealed with the film and stored at 4° C. (the number of duplicates was 3).
7. 90 μL of plasma was added to the wells set at 1 hour, 2 hours and 4 hours (the number of replicates was 3), followed by timing (the final concentration of the test compound was 500 ng/mL, and that of the control was 2 μM).
9. All samples (0 minutes, 1 hour, 2 hours, and 4 hours) at different time points on the 96-well plate were placed on a shaker (IKA, MTS 2/4) and shaken at 600 rpm for 60 minutes. The samples were then centrifuged for 15 minutes on a centrifuge machine (Thermo Multifuge×3R) at 5594×g.
10. 150 μL of the supernatant was taken out from the centrifuged sample and sent to LC-MS/MS for analysis (conventional peptide LC-MS/MS analysis).

| half-life at 500 ng/mL [h] | SMILES |
| --- | --- |
| 12.8 | CC(C)C[C@H](NC(=O)[C@H](Cc1ccccc1)NC(=O)[C@H](N)Cc1ccc(O)cc1)C(=O)N1CCC[C@H]1C(=O)N[C@H](CO)C(=O)N[C@@H](CCC(N)=O)C(=O)N[C@@H](Cc1ccccc1)C(=O)N[C@H](C)C(=O)N1Cc2ccccc2C[C@H]1C(=O)N[C@@H](CO)C(=O)O [YW-3, (D-Tyr)-Phe-Leu-Pro-(D-Ser)-Gln-Phe-(D-Ala)-Tic-Ser, reference compound] (H-[dY]FLP[dS]QF[dA][Tic]S-OH) |
| 71 | CC(C)C[C@@H](C(=O)N1CCC[C@H]1C(=O)N[C@H](CO)C(=O)N[C@@H](CCC(N)=O)C(=O)N[C@@H](Cc1ccccc1)C(=O)N[C@H](C)C(=O)N1Cc2ccccc2C[C@H]1C(=O)N[C@@H](CO)C(=O)O)N(C)C(=O)[C@H](Cc1ccccc1)NC(=O)[C@@H](Cc1ccc(O)cc1)NC(=O)CCc1ccccc1 [YW-111, 3-phenylpropanoyl-(D-Tyr)-Phe-(NMe-Leu)-Pro-(D-Ser)-Gln-Phe-(D-Ala)-Tic-Ser-OH] (Hydrocinnamoyl-[dY]F[NMeL]P[dS]QF[dA][Tic]S-OH) |
